{
  "source": "patent US20040014942A1",
  "about": "“Mutant strains capable of producing chemically diversified proteins by incorporation of non-conventional amino acids” (priority 2000, published 2004)",
  "key": {"[1]": {"system": "strains β5479, β5485 and β5486", "test": "Phenotype of new valS mutants from mutator strain", "assay_type": "cell-based, Escherichia coli", "text": "Three of these clones served to prepare lysates of the phage P1, which were used to transduce the strain β5366, by selecting for resistance to kanamycin, following the procedure of Example 5. […] The locus valS of the three strains β5479, β5485 and β5486, each corresponding to an SCC-suppressible transducer obtained from one of the three lysates was amplified by PCR and sequenced as described in Example 3. A different localised mutation was found for each of the three strains, viz. Arg 223 changed into His in the strain β5479, Val 276 changed into Ala in the strain β5485 and Asp 230 changed into Asn in the strain β5486."}, "[2]": {"system": "strain β5366 (wild-type valS allele)", "test": "Sensitivity to non-canonical amino acids, growth inhibition zone on Petri dishes", "assay_type": "cell-based, E. coli", "settings": "100 mM solution in central well", "procedure": "(1) 100 mM L-2-amino-butyrate\n(2) 100 mM L-2-amino-valerate\n(3) 100 mM L-2-3-diamino-propionate"}, "[3]": {"system": "adapted strain β8146", "test": "Phenotypic suppression by metabolic precursors of cysteine", "assay_type": "cell-based, E. coli", "settings": "3 mM (L-thiazolidine4-carboxylate acid 2 mM), instead of thymidine or thymine", "text": "(§1) The nutritional requirement for cysteine of the adapted strains β8144 and β8146 is utilised to characterise metabolic precursors which can replace cysteine in the culture medium without giving rise to degradation by oxidation. […] However, the addition of none of these substances allows the growth of the strain β1308 leading to chromosomal deletion of the gene thyA of thymidylate synthase, thus excluding their contamination by traces of thymine or thymidine."}, "[4]": {"system": "adapted strain β8144", "test": "Phenotypic suppression by metabolic precursors of cysteine", "assay_type": "cell-based, E. coli", "settings": "3 mM (L-thiazolidine4-carboxylate acid 2 mM), instead of thymidine or thymine", "text": "as §1"}, "[5]": {"system": "strain β5366 (thyA:Val146)", "test": "Growth over a cysteine diffusion gradient", "assay_type": "cell-based, E. coli", "text": "(§2) The plasmid pTS1 thus obtained propagates the allele thyA:Val146, in which the position 146 occupied in the wild-type thyA gene by the codon UGC of cysteine is occupied by the codon GUA of valine. The plasmid pTS1 is introduced by transformation, carried out according to the method of Sambrook and coll. (1989), in the strain ΔthyA of E. coli K12, β1308 (Lemeignan and coll., 1993), whereof the chromosome gene of the thymidylate synthase, thyA, is deleted. […] Thus, everything happens as if the cysteine could infiltrate the active site of the valyl-tRNA synthetase to form erroneous Cys-tRNA^val's capable of correcting the replacement of cysteine by valine in the active site of the thymidylate synthase. The excess valine would prevent the formation of these erroneous Cys-tRNA^val's."}, "[6]": {"system": "strain β1308 (ΔthyA)", "test": "Growth over a cysteine diffusion gradient", "assay_type": "cell-based, E. coli", "settings": "same conditions", "text": "as §2"}, "[7]": {"system": "twelve clones from serial propagation of β5366", "test": "Growth factor test of clones after serial culture", "assay_type": "cell-based, E. coli", "settings": "glucose mineral MS medium dishes", "procedure": "The cells are then washed twice with deoxygenated mineral MS medium. A deoxygenated nutritive medium containing 10 ml glucose mineral MS medium to which 1.5 mM cysteine is added is inoculated at 1/100 using washed cells. The cells are then cultivated in anaerobiosis for 24 hours at 30° C. and a fresh tube containing 10 ml deoxygenated cysteine glucose mineral MS medium is inoculated with a 1/100 dilution of the culture at the preceding stationary phase. This procedure is repeated 26 times. At the end of this serial propagation, 12 clones from the liquid culture are isolated on dishes of thymidine (0.3 mM) glucose mineral MS medium (2 g/l) in aerobiosis and kept in suspension in the same liquid medium at −80° C. The twelve clones are tested on dishes containing glucose mineral MS medium with nutritional factors added."}, "[8]": {"system": "strain β5274 (thyA:Ile146)", "test": "Phenotypic suppression by cysteine", "assay_type": "cell-based, E. coli", "settings": "0.1 mM isoleucine", "procedure": "The plasmid pTS2 thus obtained propagates the allele thyA:Ile146, in which the position 146 occupied in the wild-type thyA gene by the codon UGC of cysteine is occupied by the codon AUA of isoleucine. The strain propagating the plasmidic allele thyA:Ile146, […], proves to require the nutritional addition of thymine, thymidine or cysteine in excess, as in the case of the strain β5366. Phenotypic suppression of the strain β5274 by cysteine is abolished by 0.1 mM isoleucine, just as that of the strain β5366 is abolished by valine. Thus everything happens as if the isoleucyl-tRNA synthetase was capable of forming erroneous Cys-tRNA^Ile's in the presence of an excess of cysteine, and this erroneous formation was prevented by the presence of an excess of isoleucine."}, "[9]": {"system": "strain β5419 with mutator allele dnaQ::miniTn10", "test": "Selection on solid medium with S-carbamyl-L-cysteine", "assay_type": "cell-based, E. coli", "settings": "dishes 0 to 8 mM, without thymidine, 96 hours at 30°, mutator allele only", "text": "The strain β5366 carrying the false-sense allele thyA:Val146 on the plasmid pTS1 is transduced with a lysate of the phage P1 harvested on an auxiliary strain of E. coli (β7170, Bouzon et al., 1997) in the chromosome of which a marker of resistance to kanamycin had been introduced at the locus nrdD, neighbour of the locus valS of the gene of valyl-tRNA synthetase, thus producing the strain β5419. A mutator allele of the gene dnaQ is introduced extemporaneously by transduction of the strain β5419 using a lysate of the phage P1 harvested on an auxiliary strain (MS2131, Shapiro, 1990) carrying a marker of resistance to the tetracycline dnaQ::miniTn10. […] After 24 hours, the cells are harvested, and washed twice in an identical volume of culture medium without thymidine. A volume of 0.1 ml of the resultant suspension, corresponding to approximately 10^8 bacteria, is spread on the surface of a series of Petri dishes containing a concentration of S-carbamyl-L-cysteine varying between 0 and 8 mM by adding 1 mM increments of the glucose mineral MS medium (2 g/l). The same procedure is applied to the non-mutator strain β5419, and to the wild-type gene dnaQ. All the Petri dishes are incubated for 96 hours at 30°. […]"}, "[10]": {"system": "strain β5455", "test": "Growth with S-carbamyl-L-cysteine without thymine or thymidine", "assay_type": "cell-based, E. coli", "settings": "3 mM S-carbamyl-L-cysteine", "text": "A lysate of the phage P1 harvested from such a clone is used to transduce the strain β5366 carrying the plasmidic allele thyA:Val146. […] The other half of the transducers are incapable of this, and require thymine or thymidine to proliferate, just like the strain β5366. This proportion of the phenotypes is in accordance with the genetic distance between the loci valS and nrdD (0.4 mn). Thus, suppression of the false-sense mutation of thyA Cys->Val by a low concentration of exogenous cysteine could result from an alteration of the gene of valyl-tRNA synthetase. […] An A changed into a C causes replacement of the threonine at position 222 by proline, thus confirming the fixation of a genetic alteration in the gene valS of the strain β5455."}},
  "data": [
    {"compound": "L-2-amino-butyrate", "values": [
      {"measurement": "sensitivity to amino-butyrate", "setting": "[1]; clones suppressing false-sense mutant Cys 146 Val of thyA", "result": "shows sensitivity"},
      {"measurement": "effect on growth", "setting": "[2]", "result": "without effect"}
    ]},
    {"compound": "O=C(O)[C@@H]1CSCN1", "note": "[L-thiazolidine4-carboxylate acid]", "values": [
      {"measurement": "replacing cysteine as a growth factor", "setting": "[3]", "result": "capable of replacing cysteine as a growth factor"},
      {"measurement": "replacing cysteine as a growth factor", "setting": "[4]", "result": "capable of replacing cysteine as a growth factor"}
    ]},
    {"compound": "CC(C)[C@H](N)C(=O)O", "note": "[valine]", "values": [
      {"measurement": "effect on growth over a cysteine gradient", "setting": "[5]; 0.1 mM valine added to Petri dish medium", "result": "abolishes the growth"}
    ]},
    {"compound": "N[C@@H](CS)C(=O)O", "note": "[L-cysteine]", "values": [
      {"measurement": "growth over a cysteine diffusion gradient", "setting": "[6]", "result": "does not give rise to any detectable growth"},
      {"measurement": "growth over a cysteine diffusion gradient", "setting": "[5]; 30° C., glucose mineral MS medium, central well 0.1 ml of 400 mM L-cysteine", "result": "marginal growth"},
      {"measurement": "cysteine concentration in culture medium replacing thymine or thymidine as growth factor", "setting": "[7]", "result": "at least 1.5 mM"}
    ]},
    {"compound": "CC[C@H](C)[C@H](N)C(=O)O", "note": "[isoleucine]", "values": [
      {"measurement": "effect on phenotypic suppression by cysteine", "setting": "[8]", "result": "abolished"}
    ]},
    {"compound": "NC[C@H](N)C(=O)O", "note": "[L-2-3-diamino-propionate]", "values": [
      {"measurement": "effect on growth", "setting": "[2]", "result": "without effect"}
    ]},
    {"compound": "CSC[C@H](N)C(=O)O", "note": "[S-methyl-L-cysteine]", "values": [
      {"measurement": "replacing cysteine as a growth factor", "setting": "[3]", "result": "capable of replacing cysteine as a growth factor"},
      {"measurement": "replacing cysteine as a growth factor", "setting": "[4]", "result": "capable of replacing cysteine as a growth factor"}
    ]},
    {"compound": "CCC[C@H](N)C(=O)O", "note": "[L-2-amino-valerate]", "values": [
      {"measurement": "effect on growth", "setting": "[2]", "result": "without effect"}
    ]},
    {"compound": "NC(=O)SC[C@H](N)C(=O)O", "note": "[S-carbamyl-L-cysteine]", "values": [
      {"measurement": "concentration of S-carbamyl-L-cysteine at which colonies appear", "setting": "[9]", "result": "exceeding 2 mM"},
      {"measurement": "growth in the absence of thymine or thymidine", "setting": "[10]", "result": "capable of growing"},
      {"measurement": "growth in glucose mineral solid medium without thymidine", "setting": "[1]; 3 mM SCC, approximately half the transducers", "result": "capable of growing"},
      {"measurement": "replacing cysteine as a growth factor", "setting": "[3]", "result": "capable of replacing cysteine as a growth factor"},
      {"measurement": "replacing cysteine as a growth factor", "setting": "[4]", "result": "capable of replacing cysteine as a growth factor"}
    ]}
  ]
}
